Source: patent US20190010217A1, “MOBILIZING HIV-INFECTED CELLS FROM LYMPHATIC RESERVOIRS” (INDIANA UNIVERSITY RESEARCH & TECHNOLOGY CORPORATION, priority 2016, published 2019)
“Also recorded” adds a separate entry of the source.

Tests used:
[1] = tested on: Nef-ER T1 cells; assay: Adhesion of Nef-ER T cells to endothelial cells (HUVEC co-culture, FACS); type: cell-based; details: HIV-Nef expressing T cells (Nef-ER T1) on HUVECs; 10 μM atorvastatin pre-incubation at least 12 hours; FIG. 5
Method: Nef was activated in Nef-ER cells by culturing them with RPMI1640+10% FBS (fetal bovine serum) and 1 μM 4-hydrotamoxifen for at least 6 hours or overnight at 37° C. For inhibitor use, the Nef-ER cells were pre-incubated for at least 12 hours with 10 μM atorvastatin. Other inhibitors may require shorter pre-incubations.
Approximately 100K HUVECS were seeded per well in a collagen-coated 6-well plate. Cells were incubated overnight in EGM2(LONZA) medium. Nef-ER cells were stained using 5 μM Calcein AM (Ref C3100MP, Fischer Scientific) in 1 mL of staining solution and incubated for 30 minutes at 37° C. The cells were centrifuged at 300 g for 5 min, and the cell pellet was resuspended in 2 mL RPMI+10% FBS. Cells were centrifuged at 300 g for 5 min and the supernatant was removed.
After staining, 1 μL of 1 mM 4-Hydrotamoxifen per ml of EGM2(LONZA) medium was added for final concentration of 1 μM. Stained T-cells were resuspended in EGM2 media at final concentration of 250,000 cells per ml. 250,000 stained T-cells were added to each well of 6-well plate of HUVECs for co-culture (with or without 10 μM atorvastatin to maintain inhibition) and incubated for 60 minutes. The plate was gently shaken one time after 30 minutes. Cells were washed very gently 3 times with PBS (phosphate buffered saline). Cells were then trypsinized and analyzed by fluorescence activated cell sorting (FACS).

[2] = tested on: GPCRs-Gαi signaling; details: pretreatment of lymphocytes with PTX; cited from earlier work
[3] = target: S1P1 (Homo sapiens, UniProt P21453); assay: Beta arrestin-TANGO assay (luciferase reporter) in HTLA cells transfected with Nef
S1P1, sequence (P21453 whole entry): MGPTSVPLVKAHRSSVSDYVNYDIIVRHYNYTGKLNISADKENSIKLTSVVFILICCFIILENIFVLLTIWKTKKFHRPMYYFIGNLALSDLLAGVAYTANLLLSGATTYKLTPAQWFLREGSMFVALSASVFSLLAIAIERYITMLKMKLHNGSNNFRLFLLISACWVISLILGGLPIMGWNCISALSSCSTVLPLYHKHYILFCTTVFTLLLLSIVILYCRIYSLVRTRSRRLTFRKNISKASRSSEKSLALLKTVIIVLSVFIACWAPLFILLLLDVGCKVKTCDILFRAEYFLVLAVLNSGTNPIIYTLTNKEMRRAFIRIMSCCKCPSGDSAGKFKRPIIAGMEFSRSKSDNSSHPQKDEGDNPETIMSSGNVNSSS
Description: The role of beta arrestin in GPCR regulation, including S1P1 allows for the design and use of an S1P1 Arrestin-Tango expressing cell line (TANGO construct commercially available from AddGene) to test S1P1 signaling and its inhibitors. […] Upon activation of the S1P1 by an agonist, β-arrestin is recruited to the C-terminus of the receptor. This is followed by cleavage of the GPCR fusion protein at the TEV protease site. Cleavage results in the release of the tTA transcription factor, which after transport to the nucleus, activates transcription of the luciferase reporter gene. Thus, potential SNP1 inhibitors can be screened using the S1P1 Arresting Tango assay looking for an increase of luciferase activity indicating an increase in S1P1 signalling.
The role of beta arrestin in GPCR regulation, including S1P1, allows for the design and use of an S1P1 Arrestin-Tango expressing cell line (TANGO construct commercially available from AddGene) to test S1P1 signaling and its inhibitors. […] Upon activation of the S1P1 by an agonist, β-arrestin is recruited to the C-terminus of the receptor. This is followed by cleavage of the GPCR fusion protein at the TEV protease site. Cleavage results in the release of the tTA transcription factor, which after transport to the nucleus, activates transcription of the luciferase reporter gene.
Specifically, HTLA cells were transfected with NEF wt and analyzed for luciferase activity in response to increasing concentrations of sphingosine-phosphate (S1P).

CC(C)c1c(C(=O)Nc2ccccc2)c(-c2ccccc2)c(-c2ccc(F)cc2)n1CC[C@@H](O)C[C@@H](O)CC(=O)O [statin, atorvastatin]
T cell adhesion [1]: reduces T cell adhesion

Pertussis toxin
retention of T cells in lymph nodes by fingolimod [2]: prevented the retention of T cells in lymph nodes

sphingosine-phosphate [S1P]
β-arrestin recruitment (luciferase activity) in response to increasing concentrations ([3]; HTLA cells transfected with NEF wt, increasing concentrations of S1P, FIG. 7): more activation | β-arrestin activation (luciferase activity) ([3]; HTLA cells transfected with Nef, treated with 1mM S1P and/or FTY720, FIG. 8): significantly more activation; also recorded: increase in β-arrestin activation
